According to US10479780B2, “Aminopyrazole derivatives” (Chugai Seiyaku Kabushiki Kaisha, priority 2015, dated 2019):

Assays:
Assay type in all cases: biochemical
[1] = molecular target: T1, human Yes1 enzyme (Homo sapiens, UniProt P07947); test: Yes1 enzyme inhibitory activity (time-resolved fluorometry, biotinylated peptide phosphorylation); settings: read-out: YES_IC50
T1 construct: made in house
In short: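 Inhibition was expressed against a compound-free control to give IC50, using TR-FRET read-out (Eu-cryptate anti-pTyr antibody, streptavidin-XL665).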

[2] = molecular target: T2, human Src enzyme (Homo sapiens, UniProt P12931); test: Src enzyme inhibitory activity (time-resolved fluorometry, biotinylated peptide phosphorylation); settings: read-out: SRC_IC50
T2 construct: purchased Carna Biosciences, Inc. 08-173
T2 sequence (P12931 whole entry): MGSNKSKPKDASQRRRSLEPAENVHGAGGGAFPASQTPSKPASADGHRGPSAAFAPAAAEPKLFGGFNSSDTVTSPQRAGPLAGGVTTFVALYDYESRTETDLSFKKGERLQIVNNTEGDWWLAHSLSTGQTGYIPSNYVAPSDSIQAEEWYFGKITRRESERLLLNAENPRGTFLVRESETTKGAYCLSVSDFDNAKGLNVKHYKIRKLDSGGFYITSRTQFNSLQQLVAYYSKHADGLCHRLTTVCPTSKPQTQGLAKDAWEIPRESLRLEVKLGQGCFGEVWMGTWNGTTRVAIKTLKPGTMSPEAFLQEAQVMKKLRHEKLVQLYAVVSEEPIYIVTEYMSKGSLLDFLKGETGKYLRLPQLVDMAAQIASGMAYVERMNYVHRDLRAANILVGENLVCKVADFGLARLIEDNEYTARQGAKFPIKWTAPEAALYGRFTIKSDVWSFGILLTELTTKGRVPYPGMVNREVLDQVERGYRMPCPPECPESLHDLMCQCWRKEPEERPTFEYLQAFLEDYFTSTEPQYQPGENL
In short: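 Compounds were tested for blocking tyrosine phosphorylation of a biotinylated peptide substrate by recombinant human Src. Phosphorylated product was quantified by time-resolved fluorometry using europium cryptate and XL665 conjugates, and IC50 was calculated against the compound-free control.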

[3] = molecular target: T3, human Lck enzyme (Homo sapiens, UniProt P06239); test: Lck enzyme inhibitory activity (time-resolved fluorometry, biotinylated peptide phosphorylation); settings: read-out: LCK_IC50
T3 construct: purchased Carna Biosciences, Inc. 08-170
T3 sequence (P06239 whole entry): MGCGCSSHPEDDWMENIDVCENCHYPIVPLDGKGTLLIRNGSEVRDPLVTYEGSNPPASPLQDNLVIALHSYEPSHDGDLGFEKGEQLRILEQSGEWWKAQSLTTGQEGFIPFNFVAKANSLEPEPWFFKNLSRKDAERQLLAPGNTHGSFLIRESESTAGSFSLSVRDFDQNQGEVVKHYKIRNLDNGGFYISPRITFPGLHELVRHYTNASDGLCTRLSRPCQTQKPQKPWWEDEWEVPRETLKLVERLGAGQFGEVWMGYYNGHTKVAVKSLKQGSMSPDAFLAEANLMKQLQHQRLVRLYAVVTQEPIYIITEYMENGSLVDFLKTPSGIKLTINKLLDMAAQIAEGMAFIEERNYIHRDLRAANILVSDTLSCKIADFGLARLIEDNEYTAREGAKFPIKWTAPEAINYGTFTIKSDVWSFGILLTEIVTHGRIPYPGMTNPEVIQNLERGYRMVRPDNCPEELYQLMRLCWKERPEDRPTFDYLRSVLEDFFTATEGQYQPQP
In short: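 Readout pairs a europium cryptate-labelled anti-phosphotyrosine antibody with XL665-streptavidin, measured by time-resolved fluorescence. IC50 derived from percent inhibition against untreated controls.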

T1 sequence (P07947 whole entry): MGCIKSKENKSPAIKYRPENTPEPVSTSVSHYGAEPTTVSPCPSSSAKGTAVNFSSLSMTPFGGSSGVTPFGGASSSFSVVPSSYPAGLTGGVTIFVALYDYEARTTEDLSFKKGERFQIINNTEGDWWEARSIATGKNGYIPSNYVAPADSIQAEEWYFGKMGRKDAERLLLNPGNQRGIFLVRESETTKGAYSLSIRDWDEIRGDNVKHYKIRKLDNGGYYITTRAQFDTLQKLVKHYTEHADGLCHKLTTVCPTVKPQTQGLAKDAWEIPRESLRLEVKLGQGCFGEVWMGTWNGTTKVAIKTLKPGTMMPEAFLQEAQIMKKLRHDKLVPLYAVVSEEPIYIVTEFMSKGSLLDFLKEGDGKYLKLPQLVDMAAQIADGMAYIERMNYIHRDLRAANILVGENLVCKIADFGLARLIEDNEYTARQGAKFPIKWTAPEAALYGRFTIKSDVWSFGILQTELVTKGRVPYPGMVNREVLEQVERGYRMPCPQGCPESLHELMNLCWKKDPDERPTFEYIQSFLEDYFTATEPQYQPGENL

| SMILES | IC50 [1] | IC50 [2] | IC50 [3] |
| --- | --- | --- | --- |
| Cc1cc(Oc2ccccc2F)nc(C)c1-n1ncc(C(=O)c2cc3cc(F)c(NS(C)(=O)=O)cc3[nH]2)c1N [Example 5-1-060, N-[2-[5-amino-1-[6-(2-fluorophenoxy)-2,4-dimethylpyridin-3-yl]pyrazole-4-carbonyl]-5-fluoro-1H-indol-6-yl]methanesulfonamide] | 82 nM | 390 nM | 42 nM |
| Cc1cc(Oc2ccccc2F)ccc1-n1ncc(C(=O)c2cc3cc(O)c(NS(C)(=O)=O)cc3[nH]2)c1N [Example 5-1-061, N-[2-[5-amino-1-[4-(2-fluorophenoxy)-2-methylphenyl]pyrazole-4-carbonyl]-5-hydroxy-1H-indol-6-yl]methanesulfonamide] | 0.96 nM | 12 nM | 7 nM |
| Cc1cc2cc(C(=O)c3cnn(-c4ccc(Oc5ncccc5Cl)cc4Cl)c3N)[nH]c2cc1N1CCCS1(=O)=O [Example 5-1-062, [5-amino-1-[2-chloro-4-(3-chloropyridin-2-yl)oxyphenyl]pyrazol-4-yl]-[6-(1,1-dioxo-1,2-thiazolidin-2-yl)-5-methyl-1H-indol-2-yl] methanone] | 2.4 nM | 48 nM | 13 nM |
| Cc1cc2cc(C(=O)c3cnn(-c4ccc(Oc5ncccc5Cl)cc4Cl)c3N)[nH]c2cc1NS(=O)(=O)CCCF [Example 5-1-063, N-[2-[5-amino-1-[2-chloro-4-(3-chloropyridin-2-yl)oxyphenyl]pyrazole-4-carbonyl]-5-methyl-1H-indol-6-yl]-3-fluoropropane-1-sulfonamide] | 2.8 nM | 83 nM | 29 nM |
| Cc1cc2cc(C(=O)c3cnn(-c4cnc(Oc5ccc(F)cc5)cc4C)c3N)[nH]c2cc1NS(=O)(=O)N1CCOCC1 [Example 5-1-064, N-[2-[5-amino-1-[6-(4-fluorophenoxy)-4-methylpyridin-3-yl]pyrazole-4-carbonyl]-5-methyl-1H-indol-6-yl]morpholine-4-sulfonamide] | 24 nM | 340 nM | 260 nM |
| Cc1cc2cc(C(=O)c3cnn(-c4ccc(Oc5ncccc5Cl)cc4Cl)c3N)[nH]c2cc1NS(=O)(=O)N1CCOCC1 [Example 5-1-065, N-[2-[5-amino-1-[2-chloro-4-(3-chloropyridin-2-yl)oxyphenyl]pyrazole-4-carbonyl]-5-methyl-1H-indol-6-yl]morpholine-4-sulfonamide] | 7.7 nM | 350 nM | 120 nM |
| Cc1cc2cc(C(=O)c3cnn(-c4c(C)cc(Oc5cccc(F)c5F)cc4F)c3N)[nH]c2cc1NS(=O)(=O)N1CCOCC1 [Example 5-1-066, N-[2-[5-amino-1-[4-(2,3-difluorophenoxy)-2-fluoro-6-methylphenyl]pyrazole-4-carbonyl]-5-methyl-1H-indol-6-yl]morpholine-4-sulfonamide] | 2.7 nM | 210 nM | 77 nM |
| Cc1cc(Oc2c(F)cccc2F)ncc1-n1ncc(C(=O)c2cc3cc(F)c(N(C(C)C)S(C)(=O)=O)cc3[nH]2)c1N [Example 5-1-067, N-[2-[5-amino-1-[6-(2,6-difluorophenoxy)-4-methylpyridin-3-yl]pyrazole-4-carbonyl]-5-fluoro-1H-indol-6-yl]-N-propan-2-ylmethanesulfonamide] | 2.3 nM | 62 nM | 5.6 nM |
| Cc1cc(Oc2ccccc2F)ccc1-n1ncc(C(=O)c2cc3cc(OCC(F)F)c(C4CCN(C(=O)OC(C)(C)C)CC4)cc3[nH]2)c1N [Example 5-1-068, tert-Butyl 4-[2-[5-amino-1-[4-(2-fluorophenoxy)-2-methylphenyl]pyrazole-4-carbonyl]-5-(2,2-difluoroethoxy)-1H-indol-6-yl] piperidine-1-carboxylate] | 5.6 nM | 15 nM | 8.4 nM |
| Cc1cc(Oc2c(F)cccc2F)ncc1-n1ncc(C(=O)c2cc3cc(OCC(F)F)c(C4CCN(C(=O)OC(C)(C)C)CC4)cc3[nH]2)c1N [Example 5-1-069, tert-Butyl 4-[2-[5-amino-1-[6-(2,6-difluorophenoxy)-4-methylpyridin-3-yl]pyrazole-4-carbonyl]-5-(2,2-difluoroethoxy)-1H-indol-6-yl]piperidine-1-carboxylate] | 18 nM | 33 nM | 20 nM |

Continued, values first:

| IC50 [1] | IC50 [2] | IC50 [3] | SMILES |
| --- | --- | --- | --- |
| 0.85 nM | 13 nM | 12 nM | Cc1cc(Oc2ccccc2F)ccc1-n1ncc(C(=O)c2cc3cc(OCC(F)F)c(Br)cc3[nH]2)c1N [Example 5-1-070, [5-amino-1-[4-(2-fluorophenoxy)-2-methylphenyl]pyrazol-4-yl]-[6-bromo-5-(2,2-difluoroethoxy)-1H-indol-2-yl]methanone] |
| 28 nM | 67 nM | 61 nM | CCOc1cc2cc(C(=O)c3cnn(-c4ccc(Oc5ccccc5F)cc4C)c3N)[nH]c2cc1C1CCN(S(=O)(=O)C2CC2)CC1 [Example 5-1-071, [5-amino-1-[4-(2-fluorophenoxy)-2-methylphenyl]pyrazol-4-yl]-[6-(1-cyclopropylsulfonylpiperidin-4-yl)-5-ethoxy-1H-indol-2-yl]methanone] |
| 7.7 nM | 36 nM | 8.2 nM | Cc1cc(Oc2c(F)cccc2F)ncc1-n1ncc(C(=O)c2cc3cc(OC(F)F)c(-n4c(C)cc(=O)[nH]c4=O)cc3[nH]2)c1N [Example 5-1-072, 1-[2-[5-amino-1-[6-(2,6-difluorophenoxy)-4-methylpyridin-3-yl]pyrazole-4-carbonyl]-5-(difluoromethoxy)-1H-indol-6-yl]-6-methylpyrimidine-2,4-dione] |
| 9.7 nM | 42 nM | 32 nM | CCOc1cc2cc(C(=O)c3cnn(-c4ccc(Oc5ccccc5F)cc4C)c3N)[nH]c2cc1C1CCN(S(C)(=O)=O)CC1 [Example 5-1-073, [5-amino-1-[4-(2-fluorophenoxy)-2-methylphenyl]pyrazol-4-yl]-[5-ethoxy-6-(1-methylsulfonylpiperidin-4-yl)-1H-indol-2-yl] methanone] |
| 1.6 nM | 25 nM | 3.2 nM | Cc1cc(Oc2c(F)cccc2F)ncc1-n1ncc(C(=O)c2cc3cc(OC(F)F)c(N)cc3[nH]2)c1N [Example 5-1-074, [6-amino-5-(difluoromethoxy)-1H-indol-2-yl]-[5-amino-1-[6-(2,6-difluorophenoxy)-4-methylpyridin-3-yl]pyrazol-4-yl]methanone] |
| 2.8 nM | 73 nM | 18 nM | Cc1cc(Oc2c(F)cccc2F)ncc1-n1ncc(C(=O)c2cc3cc(OC(F)F)c(N4CCN(S(C)(=O)=O)CC4)cc3[nH]2)c1N [Example 5-1-075, [5-amino-1-[6-(2,6-difluorophenoxy)-4-methylpyridin-3-yl]pyrazol-4-yl]-[5-(difluoromethoxy)-6-(4-methylsulfonylpiperazin-1-yl)-1H-indol-2-yl]methanone] |
| 2.8 nM | 120 nM | 16 nM | Cc1cc(Oc2ccccc2F)cc(F)c1-n1ncc(C(=O)c2cc3cc(OC(F)F)c(NS(C)(=O)=O)cc3[nH]2)c1N [Example 5-1-076, N-[2-[5-amino-1-[2-fluoro-4-(2-fluorophenoxy)-6-methylphenyl]pyrazole-4-carbonyl]-5-(difluoromethoxy)-1H-indol-6-yl] methanesulfonamine] |
